Test results published in patent US4228288A, “Certain substituted 3,4,5,6-tetrahydropyridinium salt intermediates” (Eli Lilly and Company, priority 1979, dated 1980).
Read-outs that look alike come from different tables or passages of the source.

Key:
[1] = standard mouse writhing assay (inhibition of induced writhing); format: in vivo
Description: (§1) The analgesic activity of a number of compounds provided by this invention has been determined in the standard rat-tail jerk assay and the mouse writhing assay. The results in the mouse writhing assay are presented as the effective dose in mg./kg. of the tested compound required to inhibit induced writhing in the test animals by fifty percent (ED50). Results are presented in Column II for both subcutaneous (S.C.) and oral (p.o.) administration of the test compound recited in Column I.

[2] = standard rat-tail jerk assay (delay of response to heat stimulus); format: in vivo; conditions: subcutaneous, heat sensation
Description: as §1
Column III presents the effects of the claimed compounds on rats subjected to a heat sensation. The compounds recited in column I were administered subcutaneously to the test animals. The test results are reported as the minimum effective dose (MED) of compound in mg./kg. needed to delay response to the pain stimulus by one second compared to control animals.

[3] = oral, read-out: Mouse Writhing ED50 p.o. (dose required to inhibit induced writhing by fifty percent)
[4] = sc, subcutaneous, read-out: Mouse Writhing ED50 s.c. (dose required to inhibit induced writhing by fifty percent)

**Q.** What does the source list for CCOC(=O)C1(c2ccccc2)CCN(C)CC1 [Meperidine, meperidine, reference compound]?
**A.** ED50 [1, 3]: 21 mg/kg; ED50 [1, 4]: 2.8 mg/kg; Rat Tail Jerk MED 1 sec. (minimum effective dose to delay response to the pain stimulus by one second compared to control animals) [2]: 3.0 mg/kg

**Q.** With CCCC1(c2cccc(OC)c2)CC(C)N(C)CC1C (stereo not drawn) [1,2,5-Trimethyl-4-n-propyl-4-(3-methoxyphenyl)-piperidine] as the compound, how does the ED50 [1, 3] read?
**A.** The ED50 was 11.5 mg/kg.

**Q.** And the ED50 [1, 4]?
**A.** Its ED50 is 4 mg/kg.

**Q.** And the “Rat Tail Jerk MED 1 sec. (minimum effective dose to delay response to the pain stimulus by one second compared to control animals)” value [2]?
**A.** Its value is 2 mg/kg.

**Q.** With CCCC1(c2cccc(O)c2)CC(C)N(C)CC1C (stereo not drawn) [1,2,5-trimethyl-4-n-propyl-4-(3-hydroxyphenyl)piperidine] as the compound, how does the ED50 [1, 3] read?
**A.** Its ED50 is 16 mg/kg.

**Q.** What about the ED50 [1, 4] of the same compound?
**A.** Its ED50 is 29 mg/kg.

**Q.** What about the “Rat Tail Jerk MED 1 sec. (minimum effective dose to delay response to the pain stimulus by one second compared to control animals)” value [2] of the same compound?
**A.** The value was 20 mg/kg.

**Q.** Which results are given for CC1CC(C)(c2cccc(O)c2)C(C)CN1C (stereo not drawn) [1,2,4,5-Tetramethyl-4-(3-hydroxyphenyl)piperidine]?
**A.** ED50 [1, 3]: 9.2 mg/kg; ED50 [1, 4]: 1.25 mg/kg; Rat Tail Jerk MED 1 sec. (minimum effective dose to delay response to the pain stimulus by one second compared to control animals) [2]: 1 mg/kg

**Q.** With COc1cccc(C2(C)CC(C)N(C)CC2C)c1 (stereo not drawn) [1,2,4,5-Tetramethyl-4-(3-methoxyphenyl)piperidine] as the compound, how does the ED50 [1, 3] read?
**A.** Its ED50 is 16 mg/kg.

**Q.** And the ED50 [1, 4]?
**A.** Its ED50 is 19 mg/kg.

**Q.** And the “Rat Tail Jerk MED 1 sec. (minimum effective dose to delay response to the pain stimulus by one second compared to control animals)” value [2]?
**A.** Its value is 10 mg/kg.
